# Values quoted from earlier work, collected in patent US20140206025A1, “Use Of Detection Of Aspartate Transaminase And Lactate Dehydrogenase In Early Evaluation Of Clinical Efficacy Of Antitumor Intervention Measure” (Beijing Sunbio Biotech Co., Ltd., priority 2011, published 2014).
# System: tumor cells
# Details: Cytokin & Growth Factor Reviews 14 (2003) 337-348
substance,measurement,value
"TRAIL/APO-2L: wild type Tumor necrosis factor-related apoptosis-inducing ligand, acts on Death Receptor 4 and/or 5",induction of apoptosis of tumor cells,selectively induces the apoptosis of multiple tumor cells
same,toxic effect on normal cells,no obvious toxic effect on normal cells
